In publication PMC3274752 (Cancer discovery, 2011):

Key:
[1] = system: SCC lines harboring DDR2 mutations; experiment: Proliferation and viability of SCC lines harboring DDR2 mutations; assay type: cell-based; settings: for inhibition of proliferation: SCC lines harboring DDR2 mutations
[2] = system: Ba/F3 cells expressing DDR2 mutations; experiment: Four-day proliferation of IL-3-independent Ba/F3 cells expressing DDR2 mutants; assay type: cell-based; settings: for killing / proliferation of DDR2-transformed Ba/F3 cells: IL-3-independent Ba/F3 cells expressing DDR2 mutations, single agent
[3] = system: Ba/F3 cells expressing DDR2 L63V; assay type: cell-based; settings: Ba/F3 DDR2 L63V grown in 50 nM nilotinib
[4] = system: Ba/F3 cells, vector control grown in the presence of IL-3; experiment: Four-day proliferation of control Ba/F3 cells grown in IL-3; assay type: cell-based; settings: Mus musculus, BaF3, 96 h, read-out: mean calculated IC50 for the control
[5] = cited from earlier work
[6] = system: NCI-H1703 xenograft tumors; experiment: Xenograft of NCI-H1703 in athymic nude mice; assay type: in vivo; settings: 50 mg/kg oral gavage, two weeks
[7] = system: NCI-H2286 xenograft tumors; experiment: Xenograft of NCI-H2286 in athymic nude mice; assay type: in vivo; settings: 50 mg/kg oral gavage, two weeks
[8] = system: DDR2-mutant HCC-366 cells; settings: cited from earlier work
[9] = system: NCI-H1703 SCC cell line; settings: NCI-H1703, PDGFRA amplification, positive control
[10] = system: A549 cell line; experiment: Cell-Titer-Glo proliferation, six days, A549; assay type: cell-based; settings: Homo sapiens, A549, read-out: calculated IC50, proliferation
[11] = system: NIH-3T3 cells expressing DDR2 L63V; experiment: Soft agar colony formation, NIH-3T3 expressing DDR2 L63V; assay type: cell-based; settings: single application at the time of plating

Structure (SMILES): Cc1ccc(C(=O)Nc2ccc(CN3CCN(C)CC3)c(C(F)(F)F)c2)cc1C#Cc1cnc2cccnn12 [AP24534]
- inhibition of proliferation [1]: inhibited the proliferation of SCC lines harboring DDR2 mutations
- killing / proliferation of DDR2-transformed Ba/F3 cells [2]: effective in killing

Structure (SMILES): CN1CCN(CCOc2cc(OC3CCOCC3)c3c(Nc4c(Cl)ccc5c4OCO5)ncnc3c2)CC1 [AZD0530]
- proliferation on addition of AZD0530 to 50 nM nilotinib [3]: marked reduction in proliferation
- killing / proliferation of DDR2-transformed Ba/F3 cells [2]: modest effect on the proliferation

Structure (SMILES): Cc1nc(Nc2ncc(C(=O)Nc3c(C)cccc3Cl)s2)cc(N2CCN(CCO)CC2)n1 [dasatinib]
- cellular annexin V staining ([1]; 48 hours after addition of drug, data not shown): increase in cellular annexin V staining
- cell death versus cell cycle arrest by trypan blue exclusion ([1]; DDR2 mutant cell lines): cell death as opposed to cell cycle arrest
- IC50 [4]: 30 µM
- toxicity in patients [5]: myelosuppression and the development of pleural and pericardial effusions
- IC50 ([2]; Mus musculus, BaF3, 96 h, read-out: mean calculated IC50 for the mutants): 0.68 µM
- tumor size [6]: decrease in tumor size
- tumor size [7]: decrease in tumor size
- rank of sensitivity among 83 NSCLC cell lines ([8]; HCC-366): most sensitive squamous cell lung cancer line to dasatinib
- sensitivity in proliferation assay [9]: sensitive to both drugs
- IC50 [10]: 7.4 µM
- colony formation in soft agar [11]: Colony formation could be inhibited

Structure (SMILES): C#Cc1cccc(Nc2ncnc3cc(OCCOC)c(OCCOC)cc23)c1 [erlotinib]
- sensitivity relative to dasatinib ([1]; HCC-366 and NCI-H2286, initial experiments, data not shown): at least ten-fold less than dasatinib
- GI50 ([8]; DDR2 mutant HCC-366 cell line): 0.99 µM

Structure (SMILES): Cc1cn(-c2cc(NC(=O)c3ccc(C)c(Nc4nccc(-c5cccnc5)n4)c3)cc(C(F)(F)F)c2)cn1 [nilotinib]
- inhibition of proliferation [1]: inhibited the proliferation of SCC lines harboring DDR2 mutations
- effect on proliferation at 50 nM ([2]; 50 nM, wild-type Ba/F3 cells or Ba/F3 cells expressing DDR2 mutations): little effect on proliferation
- killing / proliferation of DDR2-transformed Ba/F3 cells [2]: modest activity
